Data reported in ChEMBL document CHEMBL5036347, “Design of the naphthyl-diarylpyrimidines as potent non-nucleoside reverse transcriptase inhibitors (NNRTIs) via structure-based extension into the entrance channel” (Eur J Med Chem, 2021).
pEC50: −log10 of the molar value.

System: Human immunodeficiency virus 1
Assay: Antiviral activity against HIV1 harboring reverse transcriptase K103N mutant infected in human MT4 cells assessed as protection against virus-induced cytopathic effect incubated for 5 days by MTT assay
Type: functional, organism-based
Details: Human immunodeficiency virus 1, MT4, 120 h

| Structure (SMILES) | pEC50 |
| --- | --- |
| Cc1ccnc2c1NC(=O)c1cccnc1N2C1CC1 [NEVIRAPINE] | 5.07 |

System: not listed separately
Assay: Water solubility of compound at pH 7 at 0.1 to 10 mg by HPLC-UV analysis
Type: physicochemical
Details: dose 0.1-10 mg

| Structure (SMILES) | solubility |
| --- | --- |
| CC(=O)O.COc1cc2cc(C#N)ccc2c(OC)c1Oc1cc(N2CCC(O)C2)nc(Nc2ccc(C#N)cc2)n1 (stereo not given) | < 1 µg/mL |
| CCNc1cc(Oc2c(OC)cc3cc(C#N)ccc3c2OC)nc(Nc2ccc(C#N)cc2)n1.Cc1ccc(S(=O)(=O)O)cc1 | < 1 µg/mL |
| CCNc1cc(Oc2c(OC)cc3cc(C#N)ccc3c2OC)nc(Nc2ccc(C#N)cc2)n1.O=C(O)/C=C\C(=O)O | 1 µg/mL |
| COc1cc2cc(C#N)ccc2c(OC)c1Oc1cc(N)nc(Nc2ccc(C#N)cc2)n1.O=C(O)C(F)(F)F | 1 µg/mL |
| COc1cc2cc(C#N)ccc2c(OC)c1Oc1cc(N2CCC(O)C2)nc(Nc2ccc(C#N)cc2)n1.CS(=O)(=O)O (stereo not given) | < 1 µg/mL |
| CCNc1cc(Oc2c(OC)cc3cc(C#N)ccc3c2OC)nc(Nc2ccc(C#N)cc2)n1.O=S(=O)(O)O | 4 µg/mL |
| CCNc1cc(Oc2c(OC)cc3cc(C#N)ccc3c2OC)nc(Nc2ccc(C#N)cc2)n1.O=CO | < 1 µg/mL |
| COc1cc2cc(C#N)ccc2c(OC)c1Oc1cc(N2CCC(O)C2)nc(Nc2ccc(C#N)cc2)n1.O=C(O)C(F)(F)F (stereo not given) | < 1 µg/mL |
| CCNc1cc(Oc2c(OC)cc3cc(C#N)ccc3c2OC)nc(Nc2ccc(C#N)cc2)n1.O=C(O)C(F)(F)F | < 1 µg/mL |
| CC(=O)O.COc1cc2cc(C#N)ccc2c(OC)c1Oc1cc(N)nc(Nc2ccc(C#N)cc2)n1 | < 1 µg/mL |
| COc1cc2cc(C#N)ccc2c(OC)c1Oc1cc(N)nc(Nc2ccc(C#N)cc2)n1.O=C(O)C(O)C(O)C(=O)O | < 1 µg/mL |
| COc1cc2cc(C#N)ccc2c(OC)c1Oc1cc(N2CCC(O)C2)nc(Nc2ccc(C#N)cc2)n1.O=C(O)C(O)C(O)C(=O)O (stereo not given) | < 1 µg/mL |
| COc1cc2cc(C#N)ccc2c(OC)c1Oc1cc(N2CCC(O)C2)nc(Nc2ccc(C#N)cc2)n1.O=S(=O)(O)O (stereo not given) | < 1 µg/mL |
| CCNc1cc(Oc2c(OC)cc3cc(C#N)ccc3c2OC)nc(Nc2ccc(C#N)cc2)n1.Cl | < 1 µg/mL |
| COc1cc2cc(C#N)ccc2c(OC)c1Oc1cc(N)nc(Nc2ccc(C#N)cc2)n1.O=C(O)/C=C\C(=O)O | 7 µg/mL |
| Br.CCNc1cc(Oc2c(OC)cc3cc(C#N)ccc3c2OC)nc(Nc2ccc(C#N)cc2)n1 | 1 µg/mL |
| COc1cc2cc(C#N)ccc2c(OC)c1Oc1cc(N)nc(Nc2ccc(C#N)cc2)n1.Cl | 1 µg/mL |

System: Human immunodeficiency virus 1
Assay: Anti-HIV activity against HIV-1 IIIB infected in human MT4 cells assessed as reduction in virus-induced cytopathic effect incubated for 5 days by MTT assay
Type: functional, organism-based
Details: Human immunodeficiency virus 1, IIIB, MT4, 120 h

| Structure (SMILES) | pEC50 |
| --- | --- |
| Cc1ccnc2c1NC(=O)c1cccnc1N2C1CC1 [NEVIRAPINE] | 4.66 |

System: not listed separately
Assay: Water solubility of compound at pH 2 at 0.1 to 10 mg by HPLC-UV analysis
Type: physicochemical
Details: dose 0.1-10 mg

| Structure (SMILES) | solubility |
| --- | --- |
| CC(=O)O.COc1cc2cc(C#N)ccc2c(OC)c1Oc1cc(N2CCC(O)C2)nc(Nc2ccc(C#N)cc2)n1 (stereo not given) | < 1 µg/mL |
| CCNc1cc(Oc2c(OC)cc3cc(C#N)ccc3c2OC)nc(Nc2ccc(C#N)cc2)n1.Cc1ccc(S(=O)(=O)O)cc1 | < 1 µg/mL |
| CCNc1cc(Oc2c(OC)cc3cc(C#N)ccc3c2OC)nc(Nc2ccc(C#N)cc2)n1.O=C(O)/C=C\C(=O)O | 2 µg/mL |
| COc1cc2cc(C#N)ccc2c(OC)c1Oc1cc(N)nc(Nc2ccc(C#N)cc2)n1.O=C(O)C(F)(F)F | < 1 µg/mL |
| COc1cc2cc(C#N)ccc2c(OC)c1Oc1cc(N2CCC(O)C2)nc(Nc2ccc(C#N)cc2)n1.CS(=O)(=O)O (stereo not given) | < 1 µg/mL |
| CCNc1cc(Oc2c(OC)cc3cc(C#N)ccc3c2OC)nc(Nc2ccc(C#N)cc2)n1.O=S(=O)(O)O | 9 µg/mL |
| CCNc1cc(Oc2c(OC)cc3cc(C#N)ccc3c2OC)nc(Nc2ccc(C#N)cc2)n1.O=CO | < 1 µg/mL |
| COc1cc2cc(C#N)ccc2c(OC)c1Oc1cc(N2CCC(O)C2)nc(Nc2ccc(C#N)cc2)n1.O=C(O)C(F)(F)F (stereo not given) | < 1 µg/mL |
| CCNc1cc(Oc2c(OC)cc3cc(C#N)ccc3c2OC)nc(Nc2ccc(C#N)cc2)n1.O=C(O)C(F)(F)F | < 1 µg/mL |
| CC(=O)O.COc1cc2cc(C#N)ccc2c(OC)c1Oc1cc(N)nc(Nc2ccc(C#N)cc2)n1 | < 1 µg/mL |
| COc1cc2cc(C#N)ccc2c(OC)c1Oc1cc(N)nc(Nc2ccc(C#N)cc2)n1.O=C(O)C(O)C(O)C(=O)O | < 1 µg/mL |
| COc1cc2cc(C#N)ccc2c(OC)c1Oc1cc(N2CCC(O)C2)nc(Nc2ccc(C#N)cc2)n1.O=C(O)C(O)C(O)C(=O)O (stereo not given) | < 1 µg/mL |
| COc1cc2cc(C#N)ccc2c(OC)c1Oc1cc(N2CCC(O)C2)nc(Nc2ccc(C#N)cc2)n1.O=S(=O)(O)O (stereo not given) | < 1 µg/mL |
| CCNc1cc(Oc2c(OC)cc3cc(C#N)ccc3c2OC)nc(Nc2ccc(C#N)cc2)n1.Cl | 9 µg/mL |
| COc1cc2cc(C#N)ccc2c(OC)c1Oc1cc(N)nc(Nc2ccc(C#N)cc2)n1.O=C(O)/C=C\C(=O)O | 13 µg/mL |
| Br.CCNc1cc(Oc2c(OC)cc3cc(C#N)ccc3c2OC)nc(Nc2ccc(C#N)cc2)n1 | 1 µg/mL |
| COc1cc2cc(C#N)ccc2c(OC)c1Oc1cc(N)nc(Nc2ccc(C#N)cc2)n1.Cl | 6 µg/mL |

System: not listed separately
Assay: Water solubility of compound at pH 7.4 at 0.1 to 10 mg by HPLC-UV analysis
Type: physicochemical
Details: dose 0.1-10 mg

| Structure (SMILES) | solubility |
| --- | --- |
| CC(=O)O.COc1cc2cc(C#N)ccc2c(OC)c1Oc1cc(N2CCC(O)C2)nc(Nc2ccc(C#N)cc2)n1 (stereo not given) | 3 µg/mL |
| CCNc1cc(Oc2c(OC)cc3cc(C#N)ccc3c2OC)nc(Nc2ccc(C#N)cc2)n1.Cc1ccc(S(=O)(=O)O)cc1 | 12 µg/mL |
| CCNc1cc(Oc2c(OC)cc3cc(C#N)ccc3c2OC)nc(Nc2ccc(C#N)cc2)n1.O=C(O)/C=C\C(=O)O | 47 µg/mL |
| COc1cc2cc(C#N)ccc2c(OC)c1Oc1cc(N)nc(Nc2ccc(C#N)cc2)n1.O=C(O)C(F)(F)F | 3 µg/mL |
| COc1cc2cc(C#N)ccc2c(OC)c1Oc1cc(N2CCC(O)C2)nc(Nc2ccc(C#N)cc2)n1.CS(=O)(=O)O (stereo not given) | 2 µg/mL |
| CCNc1cc(Oc2c(OC)cc3cc(C#N)ccc3c2OC)nc(Nc2ccc(C#N)cc2)n1.O=S(=O)(O)O | 115 µg/mL |
| CCNc1cc(Oc2c(OC)cc3cc(C#N)ccc3c2OC)nc(Nc2ccc(C#N)cc2)n1.O=CO | 2 µg/mL |
| COc1cc2cc(C#N)ccc2c(OC)c1Oc1cc(N2CCC(O)C2)nc(Nc2ccc(C#N)cc2)n1.O=C(O)C(F)(F)F (stereo not given) | 1 µg/mL |
| CCNc1cc(Oc2c(OC)cc3cc(C#N)ccc3c2OC)nc(Nc2ccc(C#N)cc2)n1.O=C(O)C(F)(F)F | < 1 µg/mL |
| CC(=O)O.COc1cc2cc(C#N)ccc2c(OC)c1Oc1cc(N)nc(Nc2ccc(C#N)cc2)n1 | < 1 µg/mL |
| COc1cc2cc(C#N)ccc2c(OC)c1Oc1cc(N)nc(Nc2ccc(C#N)cc2)n1.O=C(O)C(O)C(O)C(=O)O | 29 µg/mL |
| COc1cc2cc(C#N)ccc2c(OC)c1Oc1cc(N2CCC(O)C2)nc(Nc2ccc(C#N)cc2)n1.O=C(O)C(O)C(O)C(=O)O (stereo not given) | 3 µg/mL |
| COc1cc2cc(C#N)ccc2c(OC)c1Oc1cc(N2CCC(O)C2)nc(Nc2ccc(C#N)cc2)n1.O=S(=O)(O)O (stereo not given) | 2 µg/mL |
| CCNc1cc(Oc2c(OC)cc3cc(C#N)ccc3c2OC)nc(Nc2ccc(C#N)cc2)n1.Cl | 11 µg/mL |
| COc1cc2cc(C#N)ccc2c(OC)c1Oc1cc(N)nc(Nc2ccc(C#N)cc2)n1.O=C(O)/C=C\C(=O)O | 28 µg/mL |
| Br.CCNc1cc(Oc2c(OC)cc3cc(C#N)ccc3c2OC)nc(Nc2ccc(C#N)cc2)n1 | 1 µg/mL |
| COc1cc2cc(C#N)ccc2c(OC)c1Oc1cc(N)nc(Nc2ccc(C#N)cc2)n1.Cl | 84 µg/mL |

System: Human immunodeficiency virus 1
Assay: Antiviral activity against HIV1 harboring reverse transcriptase E138K mutant infected in human MT4 cells assessed as protection against virus-induced cytopathic effect incubated for 5 days by MTT assay
Type: functional, organism-based
Details: Human immunodeficiency virus 1, MT4, 120 h

| Structure (SMILES) | pEC50 |
| --- | --- |
| Cc1ccnc2c1NC(=O)c1cccnc1N2C1CC1 [NEVIRAPINE] | 6.48 |

System: Human immunodeficiency virus 1
Assay: Antiviral activity against HIV1 harboring reverse transcriptase Y181C mutant infected in human MT4 cells assessed as protection against virus-induced cytopathic effect incubated for 5 days by MTT assay
Type: functional, organism-based
Details: Human immunodeficiency virus 1, MT4, 120 h

| Structure (SMILES) | pEC50 |
| --- | --- |
| Cc1ccnc2c1NC(=O)c1cccnc1N2C1CC1 [NEVIRAPINE] | 5.15 |
